Results reported in patent publication US4367216A, “Triiodinated 5-aminoisophthalic acid derivatives” (Schering Aktiengesellschaft, priority 1979, dated 1983).

Columns and labels:
[1] = test system: lymphatic system of dogs; experiment: Lymphography comparison of A, B and C after direct and indirect administration; assay type: in vivo
Procedure: The following table compares the advantageous effects of the compounds of this invention in lymphography, using as test substances thiodipropionic acid bis[3,5-bis-(2,3-dihydroxypropyl-N-methylcarbamoyl)-2,4,6-triiodoanilide] (A) and 4,4,6,6-tetramethyl-4,6-disila-5-oxanonanedioic acid bis[3,5-bis(2,3-dihydroxypropyl-N-methylcarbamoyl)-2,4,6-triiodoanilide] (B) in comparison with the fatty acid ethyl ester of iodinated oleum papaveris (C). The test results were determined on dogs using testing methods conventional in lymphography after direct and indirect administration.

[2] = Stability to light and air (iodine cleavage); assay type: physicochemical; conditions: comparison table of A, B and C
[3] = cited from earlier work
[4] = dimeglumine salt; cited from earlier work
[5] = test system: lymphatic system; conditions: cited from earlier work
[6] = dogs, direct and indirect administration

In the case of CN(CC(O)CO)C(=O)c1c(I)c(NC(=O)CCSCCC(=O)Nc2c(I)c(C(=O)N(C)CC(O)CO)c(I)c(C(=O)N(C)CC(O)CO)c2I)c(I)c(C(=O)N(C)CC(O)CO)c1I (stereo not drawn) [A, thiodipropionic acid bis[3,5-bis-(2,3-dihydroxypropyl-N-methylcarbamoyl)-2,4,6-triiodoanilide]], the “Compatibility (embolism)” value ([1]; dog, in vivo) is reported as “No Embolisms”, the “Residence Time in the Body” value ([1]; dog, in vivo) is reported as “Hours” and the Stability [2] is reported as “Stable”.
With CN(CC(O)CO)C(=O)c1c(I)c(NC(=O)CC[Si](C)(C)O[Si](C)(C)CCC(=O)Nc2c(I)c(C(=O)N(C)CC(O)CO)c(I)c(C(=O)N(C)CC(O)CO)c2I)c(I)c(C(=O)N(C)CC(O)CO)c1I (stereo not drawn) [B, 4,4,6,6-tetramethyl-4,6-disila-5-oxanonanedioic acid bis[3,5-bis(2,3-dihydroxypropyl-N-methylcarbamoyl)-2,4,6-triiodoanilide]] the “Compatibility (embolism)” value [1, 6] was “No Embolisms”, the “Residence Time in the Body” value [1, 6] was “Hours” and the Stability [2] was “Stable”.
For CNC(=O)c1c(I)c(NC(=O)CCCCC(=O)Nc2c(I)c(C(=O)O)c(I)c(C(=O)NC)c2I)c(I)c(C(=O)O)c1I [iocarmic acid], the “Osmotic pressure compared with monomers” value ([3]; dimeglumine salt) is given as “somewhat lower osmotic pressure” and the “Concentration in the urine” value [4] is given as “increased”.
In the case of CC(=O)NCc1c(I)c(NC(C)=O)c(I)c(C(=O)O)c1I [iodamide], the Compatibility ([5]; crystalline suspensions, inflammation at the injection site and in the lymphatic system) is listed as “insufficient compatibility” and the Excretion period ([5]; in vivo) is listed as “days to weeks”.
In the case of CC(=O)Nc1c(I)c(C(=O)N[C@H]2C(O)O[C@H](CO)[C@@H](O)[C@@H]2O)c(I)c(N(C)C(C)=O)c1I (stereo partly drawn) [metrizamide], the Osmotic pressure ([3]; solution of 300 mg iodine/ml, blood 7.5 atmospheres) is listed as 12 atmospheres and the Usefulness for lymphography ([5]; in vivo) is listed as “useless for lymphography”.
